Experimental data taken from ChEMBL document CHEMBL1141458, “Prospects for metabotropic glutamate 1 receptor antagonists in the treatment of neuropathic pain” (J Med Chem, 2007).
Each block holds one molecule with its values, some of them ahead of it.

What was measured:
Type in all cases: functional
[1] = molecular target: T1, Metabotropic glutamate receptor 2 (Homo sapiens, UniProt Q14416); assay: Antagonist activity at mGlu2 receptor
[2] = molecular target: T2, Metabotropic glutamate receptor 1 (Homo sapiens, UniProt Q13255); assay: Antagonist activity at mGlu1 receptor
[3] = molecular target: T1, Metabotropic glutamate receptor 2; assay: Agonist activity at mGlu2 receptor
[4] = molecular target: T2, Metabotropic glutamate receptor 1; assay: Antagonist activity at human mGlu1b receptor
[5] = molecular target: T2, Metabotropic glutamate receptor 1; assay: Antagonist activity at human mGlu1 receptor
Mus musculus [6] = assay: Effect on pain in po dosed mouse in late phase of formalin assay
Mus musculus [7] = assay: Effect on pain in po dosed mouse in early phase of formalin assay
Rattus norvegicus [8] = assay: Effect on pain in ip dosed rat in late phase of formalin assay
Rattus norvegicus [9] = assay: Effect on carrageenan model of inflammatory pain in ip dosed rat
Rattus norvegicus [10] = assay: Effect on CFA-induced hyperalgesia in ip dosed rat

T2 sequence (Q13255 whole entry): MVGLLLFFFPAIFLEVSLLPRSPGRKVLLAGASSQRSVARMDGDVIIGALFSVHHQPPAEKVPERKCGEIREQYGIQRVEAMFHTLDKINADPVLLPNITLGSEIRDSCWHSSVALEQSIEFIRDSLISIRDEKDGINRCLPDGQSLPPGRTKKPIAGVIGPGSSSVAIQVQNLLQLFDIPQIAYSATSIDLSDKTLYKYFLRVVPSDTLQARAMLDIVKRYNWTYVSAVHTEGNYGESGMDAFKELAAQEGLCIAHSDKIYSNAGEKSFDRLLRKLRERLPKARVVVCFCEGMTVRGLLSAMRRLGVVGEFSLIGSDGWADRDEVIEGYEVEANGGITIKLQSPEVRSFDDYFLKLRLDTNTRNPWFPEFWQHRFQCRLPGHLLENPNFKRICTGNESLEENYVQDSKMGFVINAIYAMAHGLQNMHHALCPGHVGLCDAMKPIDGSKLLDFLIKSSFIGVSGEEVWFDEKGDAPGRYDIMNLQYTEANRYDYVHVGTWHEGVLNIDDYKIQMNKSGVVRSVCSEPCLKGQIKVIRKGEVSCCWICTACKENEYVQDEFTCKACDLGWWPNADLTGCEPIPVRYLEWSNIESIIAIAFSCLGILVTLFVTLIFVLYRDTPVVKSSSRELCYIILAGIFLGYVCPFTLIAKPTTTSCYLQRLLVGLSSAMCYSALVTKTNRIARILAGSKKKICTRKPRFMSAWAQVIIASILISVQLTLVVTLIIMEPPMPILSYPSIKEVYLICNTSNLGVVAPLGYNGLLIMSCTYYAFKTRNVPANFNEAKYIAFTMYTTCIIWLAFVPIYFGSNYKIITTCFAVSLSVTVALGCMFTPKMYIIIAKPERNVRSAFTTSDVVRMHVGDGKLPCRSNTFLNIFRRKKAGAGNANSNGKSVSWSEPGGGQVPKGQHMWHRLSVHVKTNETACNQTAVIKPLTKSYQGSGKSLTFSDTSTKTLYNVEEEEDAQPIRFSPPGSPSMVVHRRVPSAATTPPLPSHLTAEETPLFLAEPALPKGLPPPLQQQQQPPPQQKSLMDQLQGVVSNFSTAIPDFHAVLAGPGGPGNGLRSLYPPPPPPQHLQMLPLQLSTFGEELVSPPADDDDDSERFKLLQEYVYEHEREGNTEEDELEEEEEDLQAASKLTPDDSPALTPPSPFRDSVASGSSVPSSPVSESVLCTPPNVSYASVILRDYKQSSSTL
T1 sequence (Q14416 whole entry): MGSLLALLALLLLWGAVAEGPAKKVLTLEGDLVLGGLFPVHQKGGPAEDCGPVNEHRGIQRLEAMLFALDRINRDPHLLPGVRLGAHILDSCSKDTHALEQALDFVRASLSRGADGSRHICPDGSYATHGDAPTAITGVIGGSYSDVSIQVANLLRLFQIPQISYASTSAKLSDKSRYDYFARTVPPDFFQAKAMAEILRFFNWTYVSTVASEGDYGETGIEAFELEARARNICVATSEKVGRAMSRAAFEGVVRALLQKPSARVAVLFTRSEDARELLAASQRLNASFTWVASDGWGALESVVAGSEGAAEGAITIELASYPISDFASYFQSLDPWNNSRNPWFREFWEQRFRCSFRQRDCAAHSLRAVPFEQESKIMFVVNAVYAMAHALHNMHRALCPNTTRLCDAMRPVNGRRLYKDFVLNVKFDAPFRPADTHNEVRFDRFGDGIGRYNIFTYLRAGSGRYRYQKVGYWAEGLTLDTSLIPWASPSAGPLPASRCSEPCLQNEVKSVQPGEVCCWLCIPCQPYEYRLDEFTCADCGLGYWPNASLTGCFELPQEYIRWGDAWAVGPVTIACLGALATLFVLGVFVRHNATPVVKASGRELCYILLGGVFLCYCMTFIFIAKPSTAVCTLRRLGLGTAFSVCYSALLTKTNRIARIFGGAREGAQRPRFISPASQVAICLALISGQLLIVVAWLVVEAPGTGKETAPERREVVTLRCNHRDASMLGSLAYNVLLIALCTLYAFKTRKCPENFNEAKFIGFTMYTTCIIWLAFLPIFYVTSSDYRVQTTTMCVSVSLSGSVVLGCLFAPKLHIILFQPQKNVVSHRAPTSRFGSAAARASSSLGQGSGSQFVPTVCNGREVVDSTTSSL

IC50 [1]: 4.3 µM
IC50 [2]: 4.3 µM
SMILES: C[C@@](N)(C(=O)O)c1ccc(C(=O)O)cc1

EC50 [3]: 48 µM
SMILES: N[C@H](C(=O)O)c1ccc(C(=O)O)c(O)c1

IC50 [2]: 0.096 µM
SMILES: COc1ccc(Nc2ncnc3ccc(OC)cc23)cc1

IC50 [4]: 6.6 µM
SMILES: CCOC(=O)C12CC1/C(=N\O)c1ccccc1O2 (configuration not stated)

IC50 [2]: 40 µM
SMILES: N[C@H](C(=O)O)c1ccc(O)c(C(=O)O)c1

IC50 [5]: 0.00121 µM
SMILES: CO[C@H]1CC[C@@H](C(=O)c2ccc3nc4c(cc3c2)CCCO4)CC1

SMILES: CCCOC(=O)c1[nH]c(C)c(C(=O)OC(C)C(C)(C)C)c1C (configuration not stated)
ED50 (Mus musculus [6]): 0.3 mg/kg
ED50 (Mus musculus [7]): 0.3 mg/kg
ED50 (Rattus norvegicus [8]): 3 mg/kg

IC50 [2]: 0.16 µM
SMILES: C=C1C[C@@H]2COC(=O)[C@]2(Cc2ccc3ccccc3c2)C1

IC50 [2]: 0.006 µM
SMILES: Cc1c(C2=CCC(C(=O)N(C)C(C)C)CC2)nnn1-c1cccnc1F (configuration not stated)

IC50 [2]: 10 µM
SMILES: N[C@H](C(=O)O)c1ccc(C(=O)O)cc1

IC50 [2]: 1 µM
SMILES: NC(CC1c2ccccc2Sc2ccccc21)(C(=O)O)C1CC(C(=O)O)C1 (configuration not stated)

SMILES: CCc1ccc(-n2cnc3c(sc4nccc(N(C)C)c43)c2=O)cc1
ED50 (Rattus norvegicus [9]): 11 µmol/kg
ED50 (Rattus norvegicus [10]): 15 µmol/kg
ED50 (Rattus norvegicus [8]): 15 µmol/kg
